This is an account of results in patent US9006442B2, “Cannabinoid receptor modulators” (Lupin Limited, priority 2011, dated 2015).

SMILES strings stand for the structures. Like-named read-outs stand apart in the source and are kept apart here.

For this experiment, the target named is hCB2 (Homo sapiens, UniProt P34972). The experiment is described as follows: cAMP determination in functional hCB2-CHO stable cells (HTRF). The experiment is classed as cell-based. The procedure:
In-Vitro Assay Method for Determination of cAMP in Functional hCB2—CHO Stable Cells:
Recombinant CHO-hCB2 cells (procured from Perkin Elmer Inc. USA) were propagated and maintained in Ham's F-12 complete medium containing 10% heat inactivated FBS (Sigma.UK) and 1× penstrep. For assay, 0.1×10^6 to 1.0×10^6 CHO-hCB2 cells were seeded in T-25 flask and grown to mid-log phase in culture media without antibiotics for 2-3 days. […] The test is performed in 96^1/2 area black well plates. For agonist testing, 20 μl cells/well were mixed with 20 μl of sample and 10 μl of forskolin (with final concentration of 10 μM) and incubated for 20 to 40 min at room temperature in incubator. The plate was then processed for the cAMP determination using cAMP Femto-2 HTRF kit (Cisbio, Germany) as per the manual.
The concentration of compound required to stimulate a half-maximal response (EC50) was determined using the GraphPad Prism software (version 5).

The mark [1] stands for this setting: CHO-hCB2 cells, cAMP, forskolin 10 μM, agonist testing, read-out: EC50 Range.

Sequence of hCB2 (P34972 whole entry): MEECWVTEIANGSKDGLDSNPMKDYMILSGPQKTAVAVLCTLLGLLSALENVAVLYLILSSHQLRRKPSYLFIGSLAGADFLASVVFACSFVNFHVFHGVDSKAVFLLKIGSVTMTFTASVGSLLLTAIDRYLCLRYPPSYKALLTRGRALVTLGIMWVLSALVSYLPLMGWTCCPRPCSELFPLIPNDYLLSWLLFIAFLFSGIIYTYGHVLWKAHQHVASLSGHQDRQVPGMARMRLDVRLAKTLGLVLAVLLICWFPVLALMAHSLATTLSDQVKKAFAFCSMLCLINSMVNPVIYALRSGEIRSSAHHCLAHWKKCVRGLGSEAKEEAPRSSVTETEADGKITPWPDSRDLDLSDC

Regarding `Cc1cccc2c(Nc3cc(F)cc(F)c3)ncc(C(=O)N3CCOCC3)c12` [Example-3, (1-((3,5-Difluorophenyl)amino)-5-methylisoquinolin-4-yl)(morpholino)methanone], under setting [1], the EC50 (commonly the concentration at which the effect is half-maximal) is under 10 nM.

As for `Cc1cccc2c(Nc3ccc(F)cc3)ncc(C(=O)N3CCOCC3)c12` [Example-5, (1-((4-Fluorophenyl)amino)-5-methylisoquinolin-4-yl)(morpholino)methanone], the EC50 under setting [1] was 10 to 1000 nM. With `Cc1cccc2c(Nc3ccc(F)c(C(F)(F)F)c3)ncc(C(=O)N3CCOCC3)c12` [Example-6, (1-((4-Fluoro-3-(trifluoromethyl)phenyl)amino)-5-methylisoquinolin-4-yl)(morpholino)methanone], the EC50 under setting [1] is under 10 nM. The same measure, in the same setting: next, `Cc1cccc2c(Nc3ccc(F)cc3F)ncc(C(=O)N3CCOCC3)c12` [Example-7, (1-((2,4-Difluorophenyl)amino)-5-methylisoquinolin-4-yl)(morpholino)methanone]: 10 to 1000 nM. In turn, `Cc1cccc2c(Nc3cccc(CF)c3)ncc(C(=O)N3CCOCC3)c12` [Example-12, (1-(((3-Fluoromethyl)phenyl)amino)-5-methylisoquinolin-4-yl)(morpholino)methanone] registered an EC50 of 10 to 1000 nM. Same read-out and setting: the figure for `Cc1cccc2c(Nc3cccc(F)c3)ncc(C(=O)N3CCCCC3)c12` [Example-21, (1-((3-Fluorophenyl)amino)-5-methylisoquinolin-4-yl)(piperidino)methanone] is under 10 nM. In the case of `Cc1cccc2c(Nc3cccc(C(F)(F)F)c3)ncc(C(=O)N3CCCCC3)c12` [Example-23, (5-Methyl-1-(((3-trifluoromethyl)phenyl)amino)isoquinolin-4-yl)(piperidin-1-yl)methanone], the EC50 is under 10 nM. For the compound `Cc1cccc2c(Nc3cc(F)cc(F)c3)ncc(C(=O)N3CCCCC3)c12` [Example-24, (1-((3,5-Difluorophenyl)amino)-5-methylisoquinolin-4-yl)(piperidin-1-yl)methanone], the EC50 under setting [1] was under 10 nM.

In turn, `Cc1cccc2c(Nc3ccc(F)c(C(F)(F)F)c3)ncc(C(=O)N3CCCCC3)c12` [Example-27, (1-((4-Fluoro-3-(trifluoromethyl)phenyl)amino)-5-methylisoquinolin-4-yl)(piperidin-1-yl)methanone] returned an EC50 of under 10 nM. `Cc1cccc2c(Nc3cc(F)c(F)cc3F)ncc(C(=O)N3CCCCC3)c12` [Example-28, (1-((2,4,5-Trifluorophenyl)amino)-5-methylisoquinolin-4-yl)(piperidin-1-yl)methanone]: the EC50 under setting [1] is under 10 nM. On the same count and under the same terms, next, `Cc1cccc2c(Nc3ccc(F)cc3F)ncc(C(=O)N3CCCCC3)c12` [Example-29, (1-((2,4-Difluorophenyl)amino)-5-methylisoquinolin-4-yl)(piperidin-1-yl)methanone]: under 10 nM; `Cc1cccc2c(Nc3cccc(F)c3F)ncc(C(=O)N3CCCCC3)c12` [Example-33, (1-((2,3-Difluorophenyl)amino)-5-methylisoquinolin-4-yl)(piperidin-1-yl)methanone]: under 10 nM; `Cc1cccc2c(Nc3cc(F)ccc3F)ncc(C(=O)N3CCCCC3)c12` [Example-34, (1-((2,5-Difluorophenyl)amino)-5-methylisoquinolin-4-yl)(piperidin-1-yl)methanone]: under 10 nM. For the compound `Cc1cccc2c(Nc3cccc(CF)c3)ncc(C(=O)N3CCCCC3)c12` [Example-37, (1-((3-(Fluoromethyl)phenyl)amino)-5-methylisoquinolin-4-yl)(piperidin-1-yl)methanone], under setting [1], the EC50 was under 10 nM. `Cc1cccc2c(Nc3ccc(F)c(Cl)c3)ncc(C(=O)N3CC4CC(C3)O4)c12` [Example-60, 6-Oxa-3-azabicyclo[3.1.1]heptan-3-yl(1-((3-chloro-4-fluorophenyl)amino)-5-methylisoquinolin-4-yl)methanone] registered an EC50 of 10 to 1000 nM. `Cc1cccc2c(Nc3cccc(Cl)c3F)ncc(C(=O)N3CC4CC(C3)O4)c12` [Example-61, 6-Oxa-3-azabicyclo[3.1.1]heptan-3-yl(1-((3-chloro-2-fluorophenyl)amino)-5-methylisoquinolin-4-yl)methanone]: the EC50 is under 10 nM. Still for that read-out and setting: next, `Cc1c(Cl)cccc1Nc1ncc(C(=O)N2CC3CC(C2)O3)c2c(C)cccc12` [Example-65, 6-Oxa-3-azabicyclo[3.1.1]heptan-3-yl(1-((3-chloro-2-methylphenyl)amino)-5-methylisoquinolin-4-yl)methanone]: under 10 nM; `Cc1cccc2c(Nc3cccc(Cl)c3)ncc(C(=O)N3CC4CC4C3)c12` (centres unmarked) [Example-75, 3-Azabicyclo[3.1.0]hexan-3-yl(1-((3-chlorophenyl)amino)-5-methylisoquinolin-4-yl)methanone]: under 10 nM. In the case of `Cc1c(F)cccc1Nc1ncc(C(=O)N2CC3CC3C2)c2c(C)cccc12` (centres unmarked) [Example-77, 3-Azabicyclo[3.1.0]hexan-3-yl(1-((3-fluoro-2-methylphenyl)amino)-5-methylisoquinolin-4-yl)methanone], the EC50 under setting [1] is under 10 nM. The same measure, in the same setting: the figure for `Cc1cc(Nc2ncc(C(=O)N3CCOCC3)c3c(C)cccc23)ccc1F` [Example-85, (1-((4-Fluoro-3-methylphenyl)amino)-5-methylisoquinolin-4-yl)(morpholino)methanone] is under 10 nM.

The compound `Cc1c(Cl)cccc1Nc1ncc(C(=O)N2CCOCC2)c2c(C)cccc12` [Example-87, (1-((3-Chloro-2-methylphenyl)amino)-5-methylisoquinolin-4-yl)(morpholino)methanone] returned an EC50 of under 10 nM. With `Cc1ccc(Cl)cc1Nc1ncc(C(=O)N2CCOCC2)c2c(C)cccc12` [Example-88, (1-((5-Chloro-2-methylphenyl)amino)-5-methylisoquinolin-4-yl)(morpholino)methanone], under setting [1], the EC50 was under 10 nM. The same measure, in the same setting: next, `Cc1cccc2c(Nc3ccc(Cl)cc3Cl)ncc(C(=O)N3CCOCC3)c12` [Example-90, (1-((2,4-Dichlorophenyl)amino)-5-methylisoquinolin-4-yl)(morpholino)methanone]: under 10 nM. On to `Cc1ccc(Nc2ncc(C(=O)N3CCCCC3)c3c(C)cccc23)cc1Cl` [Example-92, (1-((3-Chloro-4-methylphenyl)amino)-5-methylisoquinolin-4-yl)(piperidin-1-yl)methanone], for which the EC50 was under 10 nM.

Consider `Cc1cc(Nc2ncc(C(=O)N3CCCCC3)c3c(C)cccc23)ccc1F` [Example-94, (1-((4-Fluoro-3-methylphenyl)amino)-5-methylisoquinolin-4-yl)(piperidin-1-yl)methanone], for which the EC50 is under 10 nM. Still for that read-out and setting: next, `Cc1c(F)cccc1Nc1ncc(C(=O)N2CCCCC2)c2c(C)cccc12` [Example-96, (1-((3-Fluoro-2-methylphenyl)amino)-5-methylisoquinolin-4-yl)(piperidin-1-yl)methanone]: under 10 nM; `Cc1cccc2c(Nc3cccc(Cl)c3)ncc(C(=O)N3CCCC3)c12` [Example-102, (1-((3-Chlorophenyl)amino)-5-methylisoquinolin-4-yl)(pyrrolidin-1-yl)methanone]: 10 to 1000 nM; `O=C(c1cnc(Nc2cccc(Cl)c2)c2cccc(C3CC3)c12)N1CCOCC1` [Example-114, (1-((3-Chlorophenyl)amino)-5-cyclopropylisoquinolin-4-yl)(morpholino)methanone]: under 10 nM. As to `O=C(c1cnc(Nc2cccc(F)c2F)c2cccc(C3CC3)c12)N1CCOCC1` [Example-116], the EC50 under setting [1] was under 10 nM.
